In patent publication US20190328857A1, “CALR AND JAK2 VACCINE COMPOSITIONS” (IO Biotech ApS, priority 2016, published 2019):

Tests used:
Assay type in all cases: cell-based, human
PBMC from healthy donors [1] = experiment: IFN-γ ELISPOT on PBMC from healthy donors; settings: for healthy donors with a significant response in IFN-γ ELISPOT / healthy donors with a significant response in IFN-γ ELISPOT, percentage: of 21 (CALRLong1), 23 (CALRLong2), 9 (CALRLong4), 7 (CALRLong5) analyzed
Source text: (§1) The ELISPOT assay is based on the detection of antigen induced release of cytokines—most often IFN-γ—by single T-cells upon triggering of its T-cell receptor. Reactivity of a single T-cell can be detected and quantified via binding of the respective cytokine on special nitrocellulose filter plates. When a T-cell recognizes the peptide epitope examined, the T-cell releases cytokines that are detected by a colorimetric reaction using an enzyme conjugated to a secondary cytokine specific antibody. The reaction product is visible as a spot. Ideally, each spot represents the cytokines secreted by a single activated cell. ELISPOTs were performed and analyzed as described previously (Munir et al., 2013). PBMCs were tested in different concentrations to ensure an optimal response. The distribution-free resampling method, described by Moodie et al., was used for statistical analyses and a p-value ≤0.05 was deemed a T-cell response (Moodie et al., 2010).
PBMC from healthy donors were analyzed by IFN-γ ELISPOTs as described in Example 1 for immune responses against the CARL-mutant epitopes CALRLong1 ([…]), CALRLong2 ([…]), CALRLong4 ([…]) and CALRLong5 ([…]). […]

[2] = tested on: CALRLong1-specific T-cells; experiment: Intracellular cytokine staining of CALRLong1-specific T-cell culture stimulated with peptide; settings: after three stimulations with autologous dendritic cells
Description: Fresh PBMCs were first enriched for CD14+ cells using MACS CD14 MicroBeads (Miltenyi Biotech GmbH, Bergisch Gladbach, Germany). This was considered day 0. The resulting monocyte-depleted cell culture was termed peripheral blood lymphocytes (PBL). The enriched cells were cultured using CellGro (CellGenix GmbH, Freiburg, Germany), and stimulated with GM-CSF (1000 U/ml) and IL-4 (250 U/ml) (both PeproTech, Rocky Hill, N.J., USA). The next day, to generate fast dendritic cells (fastDC), we treated half of the enriched cells with a maturation cocktail comprising IFN-γ (1000 U/ml) (PeproTech, Rocky Hill, N.J., USA), PolyI:C (20 μg/ml) (Sigma-Aldrich, St. Louis, Mo., USA) and CALRLong1 peptide. PBL were cultured overnight in X-VIVO medium (Lonza Group Ltd., Basel, Switzerland) and then stimulated with half of the fastDC. The other half of the fastDC were frozen for later use.
The other half of the enriched cells were cultured until day 7, at which time these cells were treated with the same maturation cocktail as above, to generate mature dendritic cells (mDC). The next day, these mDC were used to stimulate PBLs. On day 9, IL-2 (120 U/mL) (Novartis, Basel, Switzerland) and IL-7 (40 U/ml) (PeproTech, Rocky Hill, N.J., USA) was added. On day 14, we thawed the fastDC that had been frozen on day 2, and used these cells to stimulate the PBL. On day 16 and day 24 we added, IL-2 and IL-7 in the concentrations mentioned above.
At day 38 of the T-cell culture, we stimulated the T-cells with CALRLong1 peptide for 4 h and next isolated IFN-γ secreting cells using the MACS IFN-γ secretion assay. The isolated cells were expanded using a rapid expansion protocol. The vast majority of cells that reacted to CALRLong1 peptide stimulation were CD4^+ T-cells; thus, we isolated CD4^+ T cells from the REP culture using the EasySep Human CD4 isolation Kit (StemCell Technologies, Inc., Vancouver, BC, Canada). The enriched CD4^+ T-cells were then cloned by limiting dilution, and growing T-cell clones were rapidly expanded using feeder cells and high dose IL-2 (6000 u/ml). T-cell receptor clonotyping of the cloned cells was performed by denaturing gradient gel electrophoresis as previously described.
Frozen T-cells were thawed one day prior to assaying, and in experiments examining CD107a expression, a CD107a-PE antibody was added to cells directly after addition of peptide or target cells. After one hour of stimulation, protein-transport inhibitor Brefeldin A (BD Biosciences, San Jose, Calif., USA) was added to the cells which were then stimulated for four h. Cells were stained with CD3-APC-H7, CD4-FITC, CD8-PerCP, IFN-γ-APC, TNF-α-BV421 and Fixable Viability Stain 510 (BD Biosciences, San Jose, Calif., USA), permeabilized and washed with Permeabilization Reagent/Diluent and fixation-permeabilization buffer (AH Diagnostics, Aarhus, Denmark). Cells were acquired with a FACS Canto II (BD Biosciences) and analyzed using FACSDiva software. All effector cell stimulations were run in triplicate wells if not otherwise specified.

[3] = tested on: PBMCs from the CALRmut donor; experiment: Spontaneous ex-vivo ELISPOT, 48 hour assay; settings: high background, rules of Moodie et al.
Description: We established a CALRLong1-specific T-cell culture from a CALRmut patient with a strong […] T-cell response against CALRLong1 peptide. PBL were stimulated three times with autologous dendritic cells, and T-cells were analyzed using intracellular cytokine staining (ICS). […] However, CD4^+ T cells responded to CALRLong1 (FIG. 7). […] Since CALRLong4 peptide comprises the shared 36 amino acid C-terminus found in all CALRmut patients, we tested PBMCs from the donor for a spontaneous ex-vivo ELISPOT response in a 48 hour assay.

PBMC from healthy donors [4] = experiment: TNF-α ELISPOT on PBMC from healthy donors; settings: ten healthy controls analyzed per peptide
Source text: Of note, all patients with a TNF-α response against CALRLong1 and CALRLong2 did also display an IFN-g response in ELISPOT (FIGS. 14-15).

[5] = tested on: PBMC / T-cells from CALRmut MPN patients; experiment: Intracellular cytokine staining of patient PBMC and of DC-stimulated T-cell culture; settings: PBMC from patient C39
Source text: Next, we chose to analyze PBMC from four patients with a response against CALR Long1 and CALR Long2 peptides using intracellular cytokine staining. Although this method is less sensitive than ELISPOT, it allows elucidating which immune cells secrete the cytokine identified in ELISPOT. Hereby, we could determine whether the reacting cells were T-cells and, if so, if the responding cells were CD4 T-cells or CD8 T-cells. In short, cells were stimulated with CALR Long1 or with a scrambled peptide ([…]) as control. For surface markers we employed 4 μl NIR, 10 μl CD4 PerCP, 2 μl CD8 Pacific Blue, and 10 μl CD3 FITC and for intracellular staining we used 2 μl anti-TNF-α and anti IFN-γ antibodies conjugated with either PE-Cy7 or APC. Washing, permeabilization and staining procedures followed previously described methods (Munir, Andersen et al., 2013). […] To confirm that the responses identified indeed were T-cell responses against CALR Long1, we generated dendritic cells from patient C42 using previously described methods. Autologous PBMC were stimulated three times with the dendritic cells, which had been pulsed with CALR Long1, and we hereby generated a CALR Long1 specific T-cell culture. […] The frequent detection of T-cell responses indicate, that the CALR mutations encode highly immunogenic cancer antigens, which represent ideal targets for anti-cancer immune therapy.

[6] = tested on: PBMC from CALR-mutated MPN patients; experiment: IFN-γ ELISPOT for spontaneous T-cell responses in PBMC from CALR-mutated MPN patients
Source text: The study was approved by the local ethics committee, and all patients signed informed consent, in accordance with the Helsinki Declaration before study participation. We included 31 CALRmut MPN patients with the following diagnoses: ET (n=13), PMF (n=12), post-ET MF (n=4), or prefibrotic MF (n=2). Peripheral blood mononuclear cells (PBMC) were isolated with Lymphoprep and frozen in fetal calf serum with 10% dimethyl sulfoxide. First, we scrutinized PBMC from two MPN patients for the presence of spontaneous T-cell responses against two CALR derived peptides, CALR Long1 ([…], SEQ ID NO: 2) and CALR Long2 ([…], SEQ ID NO: 3) using the highly sensitive and solid interferon gamma (IFN-γ) Enzyme-Linked ImmunoSPOT (ELISPOT) secretion assays (FIGS. 1A and 1C). The ELISPOT has proven to be the central assay in studies focusing on identification on novel tumor antigens by the characterization of novel tumor antigen responses in PBMC from cancer patients. Thus, this assay has previously been utilized for the identification of novel tumor antigens based on spontaneous immunity in cancer patients (Andersen et al., 2005).
as §1
After the promising responses in the first two patients we analyzed PBMC from additional 29 CALR-mutated MPN patients. […] Of the 24 evaluable patients, 10 had ET and 14 had MF; the latter group comprised 11 patients with PMF, 2 with post-ET MF, and 1 with prefibrotic MF. […] Furthermore, we examined PBMC from two patients in a tumor necrosis factor alpha (TNF-α) ELISPOT.

Sequence | immune responses of healthy donors in IFN-γ ELISPOT (PBMC from healthy donors [1]) | healthy donors with a significant response in IFN-γ ELISPOT (PBMC from healthy donors [1]) | healthy donors with a significant response in IFN-γ ELISPOT, percentage (PBMC from healthy donors [1]) [%] | response of CD4^+ T cells of the CALRLong1 bulk culture to peptide stimulation [2] | spontaneous ex-vivo ELISPOT response [3] | healthy controls with a significant TNF-α response (PBMC from healthy donors [4]) | type of T-cell response, intracellular cytokine staining [5] | patients that responded in IFN-γ ELISPOT, percentage ([6]; 18 evaluable patients for CALR Long1, 24 for CALR Long2) [%] | patients that responded in IFN-γ ELISPOT ([6]; 18 evaluable patients for CALR Long1, 24 for CALR Long2, p-value ≤0.05 deemed a T-cell response) [patients] | response confirmed in additional ELISPOT ([6]; samples from 5 of the responding patients retested) [patients]
RRMRRTRRKMRRKMSPARPRTSCREACLQGWTEA (listed as Homo sapiens) [CALRLong4] | strong immune responses | 9 | 100 | reacted | significant response | – | – | – | – | –
TRRKMRRKMSPARPRTSCREACLQGWTEA (listed as Homo sapiens) [CALRLong2] | strong immune responses | 18 | 78 | did not respond | – | Five | CD4 T-cell response | 42 | 10 | 4
